Assay results taken from PMC5694347 (Clinical cancer research : an official journal of the …, 2015).
Marks after values point to notes of the source that are not given here.

Test system: patients with relapsed and/or refractory lymphoma or MM
Experiment: Safety: adverse events graded by NCI CTCAE version 3.0
[1] = Schedule A, n=27, high-level term

NS(=O)(=O)OC[C@@H]1C[C@@H](n2ccc3c(N[C@H]4CCc5ccccc54)ncnc32)C[C@@H]1O [pevonedistat]
7 (26) n (%): Anemia, All grades (Schedule A, n=27) | Diarrhea, All grades (Schedule A, n=27) | Headache, All grades (Schedule A, n=27) | Vomiting, All grades (Schedule A, n=27)
1 (4) n (%): Abdominal discomfort, All grades (Schedule A, n=27) | Diarrhea, Grade ≥3 (Schedule A, n=27) | Dyspnea, Grade ≥3 (Schedule A, n=27) | Hyperbilirubinemia, All grades (Schedule A, n=27) | Hyperkalemia, Grade ≥3 (Schedule A, n=27) | Pain, Grade ≥3 (Schedule A, n=27) | Pneumonia, All grades (Schedule A, n=27) | Pneumonia, Grade ≥3 (Schedule A, n=27) | Sinus tachycardia, Grade ≥3 (Schedule A, n=27) | Thrombocytopenia, Grade ≥3 (Schedule A, n=27) | Weight decreased, All grades (Schedule A, n=27)
12 (44) n (%): ALT increased, All grades (Schedule A, n=27) | AST increased, All grades (Schedule A, n=27) | Nausea, All grades (Schedule A, n=27)
2 (7) ^a n (%): AST increased, Grade ≥3 (Schedule A, n=27, 1 DLT)
5 (19) n (%): Anemia, Grade ≥3 (Schedule A, n=27) | Chills, All grades (Schedule A, n=27) | Dyspnea, All grades (Schedule A, n=27) | Hypercalcemia, All grades (Schedule A, n=27) | Hypophosphatemia, All grades (Schedule A, n=27) | Vision blurred, All grades (Schedule A, n=27)
4 (15) n (%): Blood creatinine increased, All grades (Schedule A, n=27) | Hyperkalemia, All grades (Schedule A, n=27) | Muscle spasms, All grades (Schedule A, n=27) | Pain in extremity, All grades (Schedule A, n=27)
2 (7) n (%): Asthenia, All grades (Schedule A, n=27) | Cough, All grades (Schedule A, n=27) | Dehydration, All grades (Schedule A, n=27) | Fatigue, Grade ≥3 (Schedule A, n=27) | Hypercalcemia, Grade ≥3 (Schedule A, n=27) | Neutropenia, All grades (Schedule A, n=27) | Neutropenia, Grade ≥3 (Schedule A, n=27) | Paresthesia, All grades (Schedule A, n=27) | Productive cough, All grades (Schedule A, n=27) | Sinus tachycardia, All grades (Schedule A, n=27)
3 (11) n (%): Back pain, All grades (Schedule A, n=27) | Hypophosphatemia, Grade ≥3 (Schedule A, n=27) | Insomnia, All grades (Schedule A, n=27) | Peripheral edema, All grades (Schedule A, n=27) | Thrombocytopenia, All grades (Schedule A, n=27) | Upper respiratory tract infection, All grades (Schedule A, n=27) | Peripheral neuropathies NEC, All grades [1]
27 (100) n (%): Any AE, All grades (Schedule A, n=27)
1 (6) n (%): ALT increased, Grade ≥3 (Schedule B, n=17)
18 (67) n (%): Fatigue, All grades (Schedule A, n=27)
3 (18) n (%): Abdominal discomfort, All grades (Schedule B, n=17)
4 (24) n (%): ALT increased, All grades (Schedule B, n=17)
16 (59) n (%): Any AE, Grade ≥3 (Schedule A, n=27)
0 n (%): Abdominal discomfort, Grade ≥3 (Schedule A, n=27) | Asthenia, Grade ≥3 (Schedule A, n=27) | Back pain, Grade ≥3 (Schedule A, n=27) | Blood alkaline phosphatase increased, Grade ≥3 (Schedule A, n=27) | Blood creatinine increased, Grade ≥3 (Schedule A, n=27) | Chills, Grade ≥3 (Schedule A, n=27) | Constipation, Grade ≥3 (Schedule A, n=27) | Cough, Grade ≥3 (Schedule A, n=27) | Decreased appetite, Grade ≥3 (Schedule A, n=27) | Dehydration, Grade ≥3 (Schedule A, n=27) | Dizziness, Grade ≥3 (Schedule A, n=27) | Dyspepsia, All grades (Schedule A, n=27) | Dyspepsia, Grade ≥3 (Schedule A, n=27) | Dyspnea exertional, All grades (Schedule A, n=27) | Dyspnea exertional, Grade ≥3 (Schedule A, n=27) | Headache, Grade ≥3 (Schedule A, n=27) | Hyperbilirubinemia, Grade ≥3 (Schedule A, n=27) | Hypomagnesemia, Grade ≥3 (Schedule A, n=27) | Insomnia, Grade ≥3 (Schedule A, n=27) | Myalgia, Grade ≥3 (Schedule A, n=27) | Nausea, Grade ≥3 (Schedule A, n=27) | Pain in extremity, Grade ≥3 (Schedule A, n=27) | Paresthesia, Grade ≥3 (Schedule A, n=27) | Peripheral edema, Grade ≥3 (Schedule A, n=27) | Productive cough, Grade ≥3 (Schedule A, n=27) | Pyrexia, Grade ≥3 (Schedule A, n=27) | Upper respiratory tract infection, Grade ≥3 (Schedule A, n=27) | Vision blurred, Grade ≥3 (Schedule A, n=27) | Vomiting, Grade ≥3 (Schedule A, n=27) | Weight decreased, Grade ≥3 (Schedule A, n=27) | Peripheral neuropathies NEC, Grade ≥3 [1] | AST increased, Grade ≥3 (Schedule B, n=17)
10 (37) n (%): Constipation, All grades (Schedule A, n=27) | Myalgia, All grades (Schedule A, n=27)
1 (4) ^a n (%): ALT increased, Grade ≥3 (Schedule A, n=27, 1 DLT) | Muscle spasms, Grade ≥3 (Schedule A, n=27, 1 DLT)
6 (22) n (%): Blood alkaline phosphatase increased, All grades (Schedule A, n=27) | Decreased appetite, All grades (Schedule A, n=27) | Dizziness, All grades (Schedule A, n=27) | Hypomagnesemia, All grades (Schedule A, n=27) | Pain, All grades (Schedule A, n=27)
11 (41) n (%): Pyrexia, All grades (Schedule A, n=27)
2 (12) n (%): AST increased, All grades (Schedule B, n=17)
